In this assay the target is T1, PPARγ (Homo sapiens, UniProt P37231).
T1 construct: gene PPARG
T1 sequence (P37231 235-505 limits assumed): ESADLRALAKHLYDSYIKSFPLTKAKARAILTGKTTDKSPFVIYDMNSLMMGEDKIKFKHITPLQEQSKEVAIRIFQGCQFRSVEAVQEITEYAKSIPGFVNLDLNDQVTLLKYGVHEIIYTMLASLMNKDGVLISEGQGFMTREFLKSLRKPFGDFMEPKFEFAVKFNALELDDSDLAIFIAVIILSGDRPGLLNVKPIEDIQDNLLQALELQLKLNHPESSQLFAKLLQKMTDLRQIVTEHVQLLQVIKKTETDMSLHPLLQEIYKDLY
Put plainly: LanthaScreen TR-FRET competitive binding assay (displacement of Fluormone Pan-PPAR Green). On the technique in general: Time-resolved FRET reads energy transfer from a long-lived donor to a nearby acceptor.
As for `CCCCCCCC/C=C\CCCCCCCC(=O)O` [Oleic acid], the IC50 (as a rule, the midpoint of a concentration-inhibition curve) worked out at 16.6 µM.
`COc1cc(O)c(CCC(C)C)c(O)c1C(=O)CCc1ccc(O)cc1` [TXN, Tetrahydroxanthohumol] registered an IC50 of 1.38 µM.
The figure for `COc1cc(O)c(CC=C(C)C)c(O)c1C(=O)/C=C/c1ccc(O)cc1` [XN, Xanthohumol] is 1.97 µM.

Values taken from publication PMC8205491, “Tetrahydroxanthohumol, a xanthohumol derivative, attenuates high-fat diet-induced hepatic steatosis by antagonizing PPARγ” (eLife, 2021).
